Assays:
CDK6/CyclinD1 = biological target: T1, CDK6/CyclinD1 (Homo sapiens, UniProt Q00534); assay: In vitro cell-free CDK6/CyclinD1 kinase activity assay (TR-FRET); format: biochemical; conditions: ATP at Km
T1 construct: purchased Carna 04-114
Experimental: It should be noted that the assay can also be conducted by a similar method. The assay steps in this Test Example are as follows:
The CDK6/CyclinD1 kinase activity was determined using a time-resolved fluorescence resonance energy transfer (TR-FRET) method. Measurements were performed in a reaction volume of 20 μL using 384-well assay plates. […] The reaction was stopped by adding a mixture of a peptide antibody (trade name: Cisbio, product No. 64CUSKAY) and Sa-XL665 (trade name: Cisbio, product No. 610SAXLB) diluted in HTRF KinEASE detection buffer (trade name: Cisbio, product No. 62SDBRDF, containing EDTA). After the mixture was incubated for 1 hour at room temperature, the plate was read. The TR-FRET signal was measured on a multimode plate reader (EnVision™, a multi-function microplate detector, PerkinElmer) at an excitation wavelength (λEx) of 330 nm and detection wavelengths (λEm) of 615 and 665 nm. The activity was determined by the ratio of fluorescence at 665 nm to that at 615 nm. For each compound, the enzyme activities of different concentrations of the compound were measured to determine IC50. The negative control contained no inhibitor. Two no-enzyme controls were used to determine baseline fluorescence levels. IC50 was obtained by fitting using the GraphPad 6.02 software.
8-10 concentrations were prepared for each compound, and formulated in DMSO. The stock concentration was 200× the working concentration. For example, if the working concentration was 100 nM, the corresponding concentration of the formulated stock solution was 20 μM.
In the analysis of in vitro inhibitory activity on CDK kinase, the IC50 value of each of the Example compounds and Reference Example compounds was determined.

MCF-7 cells = assay: Cell viability assay, MCF-7 cells (CellTiter-Glo, 168 h); format: cell-based; conditions: Homo sapiens, MCF7
Experimental: An in vitro cell viability assay was conducted using some Example compounds following the steps below:
1. After recovery, MCF-7 cells (obtained from the Shanghai Cell Bank of the Chinese Academy of Sciences) were cultured at 37° C., 5% CO2, and 95% humidity.
2. 8 compound solutions at different concentrations were prepared for each Example compound. 50 μL of the compound solution at each concentration was added to a 96-well black plate.
3. The cell concentration was adjusted to about 30,000 cells/mL. 100 μL of the cell suspension was added to the 96-well plate, and mixed well to a final cell density of about 3,000 cells/well.
4. The 96-well plate was incubated at 37° C., 5% CO2, and 95% humidity for 168 h, i.e., 7 days.
5. The cell survival rate was measured by the method of CellTiter-Glo® Luminescent Cell Viability Assay (Promega, Cat #G7572). The fluorescence data were read on a microplate reader (EnVision™, a multi-function microplate detector, PerkinElmer).
6. The obtained fluorescence data were analyzed using the GraphPad Prism software. The cell survival rate was calculated for each Example compound at each concentration, and the IC50 interval of each Example compound was determined.

T1 sequence (Q00534 whole entry): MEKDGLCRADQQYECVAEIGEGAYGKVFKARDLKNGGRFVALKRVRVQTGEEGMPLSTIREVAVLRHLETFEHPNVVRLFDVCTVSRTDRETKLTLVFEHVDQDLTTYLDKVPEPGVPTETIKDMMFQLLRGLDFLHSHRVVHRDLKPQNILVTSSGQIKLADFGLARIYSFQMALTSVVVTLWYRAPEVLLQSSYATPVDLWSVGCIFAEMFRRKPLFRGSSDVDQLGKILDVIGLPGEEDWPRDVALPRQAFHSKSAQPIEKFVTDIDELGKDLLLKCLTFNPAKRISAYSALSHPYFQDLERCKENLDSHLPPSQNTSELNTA
T1 sequence (P24385 whole entry partner): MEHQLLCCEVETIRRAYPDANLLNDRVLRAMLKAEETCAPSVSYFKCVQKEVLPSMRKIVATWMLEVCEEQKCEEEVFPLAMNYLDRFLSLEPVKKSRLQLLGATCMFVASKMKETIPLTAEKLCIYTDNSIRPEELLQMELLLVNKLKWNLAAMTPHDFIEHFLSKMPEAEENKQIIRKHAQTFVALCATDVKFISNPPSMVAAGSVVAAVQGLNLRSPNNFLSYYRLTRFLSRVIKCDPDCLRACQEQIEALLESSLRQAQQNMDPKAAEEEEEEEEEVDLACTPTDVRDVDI

SMILES	IC50 (CDK6/CyclinD1) [nM]	IC50 (MCF-7 cells) [nM]
N#Cc1cc2cnc(Nc3ccc(N4CCNCC4)cc3)nn2c1Br [Example 1]	< 100	< 500
N#Cc1cc2cnc(Nc3ccc(N4CCNCC4)cc3)nn2c1C1=CCCC1 [Example 2]	< 100	< 500
N#Cc1cc2cnc(Nc3ccc(N4CCNCC4)cc3)nn2c1-c1ccccc1 [Example 3]	< 100	< 500
C1=C(c2ccc3cnc(Nc4ccc(N5CCNCC5)cc4)nn23)CCC1 [Example 4]	100 to 1000	< 500
CN1CCN(c2ccc(Nc3ncc4ccc(C5=CCCC5)n4n3)cc2)CC1 [Example 5]	100 to 1000	< 500
N#Cc1cc2cnc(Nc3ccc(N4CCNCC4)cc3)nn2c1N1CCCC1 [Example 6]	< 100	< 500
N#Cc1cc2cnc(Nc3ccc(N4CCNCC4)cc3)nn2c1-c1ccc(Cl)cc1 [Example 7]	< 100	< 500
Cn1cc(-c2c(Br)c3cnc(Nc4ccc(N5CCNCC5)cc4)nn3c2Br)cn1 [Example 8]	< 100	500 to 2500
COc1ccc(-c2c(C#N)cc3cnc(Nc4ccc(N5CCNCC5)cc4)nn23)cc1 [Example 9]	< 100	< 500
COc1ccccc1-c1c(C#N)cc2cnc(Nc3ccc(N4CCNCC4)cc3)nn12 [Example 10]	< 100	< 500
COc1cc(F)ccc1-c1c(C#N)cc2cnc(Nc3ccc(N4CCNCC4)cc3)nn12 [Example 11]	< 100	< 500
N#Cc1cc2cnc(Nc3ccc(N4CCNCC4)cc3)nn2c1-c1cccnc1 [Example 12]	< 100	< 500
N#Cc1cc2cnc(Nc3ccc(N4CCNCC4)cc3)nn2c1-c1ccc(F)cc1 [Example 13]	< 100	< 500
N#Cc1cc2cnc(Nc3ccc(N4CCNCC4)cc3)nn2c1-c1ccc2ccccc2c1 [Example 14]	< 100	< 500
N#Cc1cc2cnc(Nc3ccc(N4CCNCC4)cc3)nn2c1-c1cccc2cccnc12 [Example 15]	100 to 1000	< 500
N#Cc1cc2cnc(Nc3ccc(N4CCNCC4)cc3)nn2c1N1CCC2(CCNCC2)CC1 [Example 16]	< 100	500 to 2500
N#Cc1cc2cnc(Nc3ccc(N4CCNCC4)cc3)nn2c1N1CCC2(CCCCC2)C1 [Example 17]	< 100	< 500
COc1ccc(-c2c(C#N)cc3cnc(Nc4ccc(N5CCNCC5)cc4)nn23)cn1 [Example 18]	< 100	< 500
COc1ccc(-c2c(-c3cnn(C)c3)cc3cnc(Nc4ccc(N5CCNCC5)cn4)nn23)cc1 [Example 19]	< 100	500 to 2500

SMILES	IC50 (CDK6/CyclinD1) [nM]	IC50 (MCF-7 cells) [nM]
Cc1noc(C)c1-c1cc2cnc(Nc3ccc(N4CCNCC4)cn3)nn2c1-c1ccc(F)cc1 [Example 20]	100 to 1000	500 to 2500
Cc1noc(C)c1-c1cc2cnc(Nc3ccc(N4CCNCC4)cn3)nn2c1C1=CCCC1 [Example 21]	100 to 1000	500 to 2500
Cc1nn(C)cc1-c1cc2cnc(Nc3ccc(N4CCNCC4)cn3)nn2c1C1=CCCC1 [Example 23]	100 to 1000	< 500
N#Cc1cc2cnc(Nc3ccc(N4CCNCC4)cn3)nn2c1-c1ccc(Cl)cc1 [Example 24]	< 100	< 500
N#Cc1cc2cnc(Nc3ccc(N4CCNCC4)cn3)nn2c1C1=CCCC1 [Example 25]	< 100	< 500
N#Cc1cc2cnc(Nc3ccc(N4CCNCC4)cn3)nn2c1N1CCCC1 [Example 26]	< 100	< 500
N#Cc1cc2cnc(Nc3ccc(N4CCNCC4)cn3)nn2c1-c1cccnc1 [Example 27]	100 to 1000	2500 to 10000
CN(C)C(=O)c1cc2cnc(Nc3ccc(N4CCNCC4)cn3)nn2c1C1=CCCC1 [Example 28]	< 100	< 500
CN(C)C(=O)c1cc2cnc(Nc3ccc(N4CCNCC4)cn3)nn2c1N1CCCC1 [Example 29]	< 100	< 500
N#Cc1cc2cnc(Nc3ccc(N4CCNCC4)cn3)nn2c1C1=CCC(=O)CC1 [Example 30]	100 to 1000	2500 to 10000
CN(C)C(=O)c1cc2cnc(Nc3ccc(N4CCNCC4)cn3)nn2c1N1CCCCC1 [Example 31]	< 100	< 500
CN(C)C(=O)c1cc2cnc(Nc3ccc(N4CCNCC4)cn3)nn2c1-c1ccc(F)cc1 [Example 32]	< 100	< 500
CN(C)C(=O)c1cc2cnc(Nc3ccc(N4CCC5(CCNCC5)CC4)cn3)nn2c1C1=CCCC1 [Example 33]	< 100	< 500
CN(C)C(=O)c1cc2cnc(Nc3ccc(N4CCNCC4)cn3)nn2c1-c1ccc(Cl)cc1 [Example 34]	< 100	< 500
CN(C)C(=O)c1cc2cnc(Nc3ccc(N4CCC5(CC4)CC5)cn3)nn2c1C1=CCCC1 [Example 35]	100 to 1000	500 to 2500
CN(C)C(=O)c1cc2cnc(Nc3ccc(N4CCNCC4)cn3)nn2c1-c1cccnc1 [Example 36]	100 to 1000	
CN(C)C(=O)c1cc2cnc(Nc3ccc(N4CCC5(CC4)OCCO5)cn3)nn2c1C1=CCCC1 [Example 37]	< 100	500 to 2500
CN(C)C(=O)c1cc2cnc(Nc3ccc(N4CCC5(CC4)COC5)cn3)nn2c1C1=CCCC1 [Example 38]	< 100	< 500
CN(C)C(=O)c1cc2cnc(Nc3ccc(N4CC5(CCNC5)C4)cn3)nn2c1C1=CCCC1 [Example 39]	< 100	< 500

SMILES	IC50 (CDK6/CyclinD1) [nM]	IC50 (MCF-7 cells) [nM]
CN(C)C(=O)c1cc2cnc(Nc3ccc(N4CC5(CNC5)C4)cn3)nn2c1C1=CCCC1 [Example 40]	< 100	< 500
CN(C)C(=O)c1cc2cnc(Nc3ccc(N4CCC5(CC4)CNC5)cn3)nn2c1C1=CCCC1 [Example 41]	< 100	< 500
COc1ccc(-c2c(C(=O)N(C)C)cc3cnc(Nc4ccc(N5CCNCC5)cn4)nn23)cc1 [Example 42]	< 100	< 500
CN(C)C(=O)c1cc2cnc(Nc3ccc(N4CCC5(CCNCC5)C4)cn3)nn2c1-c1ccc(Cl)cc1 [Example 43]	< 100	500 to 2500
COCCOc1ccc(-c2c(C(=O)N(C)C)cc3cnc(Nc4ccc(N5CCC6(CC5)CNC6)cn4)nn23)cc1 [Example 48]	< 100	
CN(C)C(=O)c1cc2cnc(Nc3ccc(N4CCNCC4)cn3)nn2c1-c1cnn(C)c1 [Example 56]	100 to 1000	
CN(C)C(=O)c1cc2cnc(Nc3ccc(N4CC5(CNC5)C4)cn3)nn2c1-c1ccncc1 [Example 61]	< 100	
COc1cc(F)ccc1-c1c(C(=O)N(C)C)cc2cnc(Nc3ccc(N4CCC5(CC4)CNC5)cn3)nn12 [Example 62]	100 to 1000	
CN(C)C(=O)c1cc2cnc(Nc3ccc(N4CCC5(CC4)CNC5)cn3)nn2c1-c1ccncc1 [Example 63]	< 100	
CN(C)C(=O)c1cc2cnc(Nc3ccc(N4CCC5(CC4)CNC5)cn3)nn2c1-c1cnn(C)c1 [Example 64]	100 to 1000	
CN(C)C(=O)c1cc2cnc(Nc3ccc(N4CC5(CNC5)C4)cn3)nn2c1-c1cnn(C)c1 [Example 66]	< 100	
Cc1nn(C)cc1-c1c(C(=O)N(C)C)cc2cnc(Nc3ccc(N4CC5(CNC5)C4)cn3)nn12 [Example 67]	100 to 1000	
CN(C)C(=O)c1cc2cnc(Nc3ccc(N4CC5(CCNC5)C4)cn3)nn2c1-c1cnn(C)c1 [Example 70]	< 100	
Cn1cc(-c2cc3cnc(Nc4ccc(N5CCNCC5)cn4)nn3c2C2=CCCC2)ncc1=O [Example 77]	100 to 1000	
Cn1cc(-c2cc3cnc(Nc4ccc(N5CCNCC5)cn4)nn3c2N2CCOCC2)cn1 [Example 79]	< 100	
Cn1ccc(-c2cc3cnc(Nc4ccc(N5CCNCC5)cn4)nn3c2C2=CCCC2)cc1=O [Example 80]	< 100	
COc1ccc(-c2c(-c3cnn(C)c3)c(-c3ccc(OC)cc3)n3nc(Nc4ccc(N5CCNCC5)cn4)ncc23)cc1 [Reference Example 129, reference compound]	> 3000	
Cn1cc(-c2c(C3=CCCC3)c3cnc(Nc4ccc(N5CCNCC5)cn4)nn3c2C2=CCCC2)cn1 [Reference Example 130, reference compound]	1000 to 3000	

— patent publication US20230002393A1, “CDK KINASE INHIBITOR” (BEIJING BENICALL BIOTECH CO., LTD., priority 2019, published 2023)
